Drawing on ChEMBL document CHEMBL1157734, “Design and synthesis of novel bis-oximinoalkanoic acids as potent PPAR alpha agonists” (Bioorg Med Chem Lett, 2010), this text covers EC50, Activity and Ratio for 15 compounds.

Activity calls are given as the source filed them. No cut-off for these calls is given here.

The target in experiment [1] is T1, Peroxisome proliferator-activated receptor alpha (Homo sapiens, UniProt Q07869).
T1 sequence (Q07869 whole entry): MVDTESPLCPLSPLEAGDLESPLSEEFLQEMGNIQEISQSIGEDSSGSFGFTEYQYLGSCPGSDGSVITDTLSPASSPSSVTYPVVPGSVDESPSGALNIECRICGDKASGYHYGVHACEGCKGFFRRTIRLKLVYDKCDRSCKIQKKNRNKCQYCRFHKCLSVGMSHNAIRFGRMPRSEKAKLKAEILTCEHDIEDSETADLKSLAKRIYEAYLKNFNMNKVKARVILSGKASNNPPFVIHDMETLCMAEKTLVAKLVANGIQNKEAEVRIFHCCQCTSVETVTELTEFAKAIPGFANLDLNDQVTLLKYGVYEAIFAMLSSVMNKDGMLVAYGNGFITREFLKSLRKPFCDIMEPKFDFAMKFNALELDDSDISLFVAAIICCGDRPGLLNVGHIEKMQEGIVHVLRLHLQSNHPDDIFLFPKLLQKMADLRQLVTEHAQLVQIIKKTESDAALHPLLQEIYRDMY
In words: Agonist activity at human full length PPARalpha expressed in human HepG2 cells co-transfected with PPRE3-TK-luc assessed as […] by firefly luciferase assay. In kind it is functional, cell-based.

Experiment [2] deals with T2, Peroxisome proliferator-activated receptor gamma (Homo sapiens, UniProt P37231).
T2 sequence (P37231 whole entry): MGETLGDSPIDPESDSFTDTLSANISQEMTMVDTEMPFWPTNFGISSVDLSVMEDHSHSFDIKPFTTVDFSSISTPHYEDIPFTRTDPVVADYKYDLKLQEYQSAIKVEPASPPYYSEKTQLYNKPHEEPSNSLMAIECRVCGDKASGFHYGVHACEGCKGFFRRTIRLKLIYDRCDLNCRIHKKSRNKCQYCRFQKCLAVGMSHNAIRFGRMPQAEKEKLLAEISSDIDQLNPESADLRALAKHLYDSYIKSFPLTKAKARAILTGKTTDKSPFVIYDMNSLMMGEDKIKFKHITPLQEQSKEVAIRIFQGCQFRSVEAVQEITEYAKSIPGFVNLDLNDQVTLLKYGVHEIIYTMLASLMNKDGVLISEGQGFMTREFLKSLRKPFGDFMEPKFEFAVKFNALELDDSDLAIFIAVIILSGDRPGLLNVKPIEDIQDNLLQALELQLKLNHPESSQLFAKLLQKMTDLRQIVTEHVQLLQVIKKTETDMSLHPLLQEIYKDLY
In words: Agonist activity at human full length PPARgamma expressed in human HepG2 cells co-transfected with PPRE3-TK-luc assessed as […] by firefly luciferase assay. In kind it is functional, cell-based.

For experiment [3], the target named is T3, Peroxisome proliferator-activated receptor alpha (Homo sapiens) (UniProt Q07869).
T3 sequence (whole entry): T1 sequence (Q07869 whole entry)
In words: Agonist activity at human full length PPARalpha expressed in human HepG2 cells co-transfected with PPRE3-TK-luc assessed as […] by firefly luciferase assay relative to WY-14643. In kind it is functional, cell-based. More on the design: concentration or dose not given beside the values.

In experiment [4] the target is T4, Peroxisome proliferator-activated receptor delta (Homo sapiens) (UniProt Q03181).
T4 sequence (whole entry): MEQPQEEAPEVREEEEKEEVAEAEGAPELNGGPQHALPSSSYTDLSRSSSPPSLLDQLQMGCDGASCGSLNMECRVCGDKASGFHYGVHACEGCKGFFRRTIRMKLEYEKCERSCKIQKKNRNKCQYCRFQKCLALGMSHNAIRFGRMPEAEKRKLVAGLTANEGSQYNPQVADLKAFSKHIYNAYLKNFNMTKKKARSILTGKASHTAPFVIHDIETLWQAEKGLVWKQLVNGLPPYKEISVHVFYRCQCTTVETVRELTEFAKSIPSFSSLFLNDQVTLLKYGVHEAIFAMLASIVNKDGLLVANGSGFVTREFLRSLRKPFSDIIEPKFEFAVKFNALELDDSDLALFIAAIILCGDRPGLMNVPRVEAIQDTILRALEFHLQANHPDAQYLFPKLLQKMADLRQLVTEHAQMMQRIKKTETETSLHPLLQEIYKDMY
Kind of experiment: Agonist activity at human full length PPARdelta expressed in human HepG2 cells co-transfected with PPRE3-TK-luc assessed as […] at 1 uM by firefly luciferase assay. In kind it is functional, cell-based.

The subject of experiment [5] is Mus musculus. Kind of experiment: Reduction in serum triglyceride level in Swiss albino mouse at 10 mg/kg/day for 6 days relative to control. Type of experiment: functional. Also on record: scale not given: the % may be the effect or the level left.
The species entered for experiment [6] is Homo sapiens. In words: Selectivity for human full length PPARalpha over human full length PPARgamma.

For the compound `C/C(=N\OCCCCO/N=C(/CCC(=O)O)c1ccccc1)c1ccc(F)cc1`, the half-maximal effective concentration (EC50) was determined as 50 nM in experiment [1] and 1400 nM in experiment [2] (read-out: EC50). The Activity in experiment [3] is 101%; in experiment [5] it was 18%. The result in experiment [4] was inactive.

In the case of `COc1ccc(/C(C)=N/OCCCCO/N=C(/CCC(=O)O)c2ccccc2)cc1`, the EC50 in experiment [1] is 10 nM; in experiment [2] (read-out: EC50), 1100 nM. Moreover, the figures for the Activity in experiment [3] and in experiment [5] were 102% and 35%, respectively. In addition, in experiment [4], the result was inactive. The Ratio in experiment [6] was determined as 110.

For `C/C(=N\OCCCCO/N=C(/CCC(=O)O)c1ccccc1)c1ccc(S(C)(=O)=O)cc1`, the EC50 in experiment [1] is 2400 nM; in experiment [2] (read-out: EC50), 1900 nM. For the same compound, the Activity in experiment [3] was determined as 41%; in experiment [5], 14%. For the same compound, the result in experiment [4] was inactive.

In the case of `CCCCc1cccc(/C(C)=N/OCCCCO/N=C(/CCC(=O)O)c2ccccc2)c1`, the values for the concentration for a half-maximal effect (EC50) in experiment [1] and in experiment [2] (read-out: EC50) were 500 nM and 200 nM, respectively. Also, the Activity in experiment [3] amounted to 85%; in experiment [5], 31%. Besides, the result in experiment [4] was inactive.

Take `C/C(=N\OCCCCO/N=C(/CCC(=O)O)c1ccccc1)c1cccc(-c2ccccc2)c1`: the results for the 50% effective concentration (EC50) in experiment [1] and in experiment [2] (read-out: EC50) were 20 nM and 100 nM, respectively. In addition, the Activity in experiment [3] amounted to 83%; in experiment [5], 23%. Moreover, the result in experiment [4] was inactive.

Take `C/C(=N\OCCCCO/N=C(/CCC(=O)O)c1ccccc1)c1ccc2c(c1)CCCC2`: the values for the concentration giving a half-maximal response (EC50) in experiment [1] and in experiment [2] (read-out: EC50) were 3 nM and 200 nM, respectively. Besides, the Activity was 86% in experiment [3] and 36% in experiment [5]. Also, the outcome in experiment [4] was inactive.

With `COc1cc(/C(C)=N/OCCCCO/N=C(/CCC(=O)O)c2ccccc2)ccc1F`, the figures for the 50% effective concentration (EC50) in experiment [1] and in experiment [2] (read-out: EC50) were 400 nM and 700 nM, respectively. Also, the figures for the Activity in experiment [3] and in experiment [5] were 122% and 19%, respectively. Further, the outcome in experiment [4] was inactive.

With `C/C(=N\OCCCCO/N=C(/CCC(=O)O)c1ccccc1)c1ccccc1`, the values for the half-maximal effective concentration (EC50) in experiment [1] and in experiment [2] (hepg2) were 2300 nM and “Not Active”, respectively. Moreover, the Activity in experiment [3] turned out to be 46%. Further, the outcome in experiment [4] was inactive.

On to `COc1cc(/C(C)=N/OCCCCO/N=C(/CCC(=O)O)c2ccccc2)ccc1C`, for which the half-maximal effective concentration (EC50) in experiment [1] stood at 5 nM; in experiment [2] (read-out: EC50), 1600 nM. For the same compound, the Activity in experiment [3] stood at 257%; in experiment [5] it was 36%. The result in experiment [4] was inactive.

Regarding `C/C(=N\OCCCCO/N=C(/CCC(=O)O)c1ccccc1)c1ccc2ccccc2c1`, the figures for the EC50 in experiment [1] and in experiment [2] (read-out: EC50) were 30 nM and 200 nM, respectively. Also, the figures for the Activity in experiment [3] and in experiment [5] were 61% and 25%, respectively. The result in experiment [4] was inactive. Further, the Ratio in experiment [6] worked out at 6.

Regarding `C/C(=N\OCCCCO/N=C(/CCC(=O)O)c1ccccc1)c1ccc(C)c(C)c1`, the results for the EC50 in experiment [1] and in experiment [2] (read-out: EC50) were 2 nM and 1000 nM, respectively. Moreover, the Activity is 89% in experiment [3] and 12% in experiment [5]. For the same compound, in experiment [4], the outcome was inactive. The Ratio in experiment [6] is 320.

For the compound `C/C(=N\OCCCCO/N=C(/CCC(=O)O)c1ccccc1)c1ccc(C(F)(F)F)cc1`, the results for the concentration giving a half-maximal response (EC50) in experiment [1] and in experiment [2] (read-out: EC50) were 400 nM and 1400 nM, respectively. For the same compound, the Activity in experiment [3] is 79%; in experiment [5] it was 0.6%. Further, the outcome in experiment [4] was inactive.

`C/C(=N\OCCCCO/N=C(/CCC(=O)O)c1ccccc1)c1ccc(C)cc1`: the EC50 in experiment [1] is 50 nM; in experiment [2] (read-out: EC50), 2100 nM. In addition, the Activity in experiment [3] was 78%; in experiment [5], 13%. The outcome in experiment [4] was inactive.

`COc1ccc(/C(C)=N/OCCCCO/N=C(/CCC(=O)O)c2ccccc2)cc1OC`: the concentration giving a half-maximal response (EC50) in experiment [1] turned out to be 100 nM; in experiment [2] (read-out: EC50), 800 nM. Also, the figures for the Activity in experiment [3] and in experiment [5] were 136% and 30%, respectively. Besides, the result in experiment [4] was inactive.

On to `Cc1oc(-c2ccccc2)nc1COc1ccc(CO/N=C(\CCC(=O)O)c2ccccc2)cc1` [IMIGLITAZAR], for which the EC50 in experiment [1] came to 5 nM. Further, the Activity in experiment [3] was determined as 116%; in experiment [5], 37%. The outcome in experiment [4] was inactive.

Usually EC50 stands for the concentration that produces a half-maximal response.
